Data reported in BindingDB's records for doi:10.1016/j.chembiol.2005.11.011 (Cyclacel, 2006).

Biological target: Cyclin-dependent kinase 2 (Homo sapiens, UniProt P24941)
Assay: In Vitro Inhibition
From the text: In vitro inhibition assay using human recombinant CDK2 and human recombinant cyclin A2.

IC50: 250 nM
Compound: O=[N+]([O-])c1cccc(Nc2nccc(-c3cccc(Cn4cncn4)c3)n2)c1 [N-(3-nitrophenyl)-4-[3-(1H-1,2,4-triazol-1-ylmethyl)phenyl]pyrimidin-2-amine, 6]
